From patent US7384788B2, “Regulator/promoter for tunable gene expression and metabolite sensing” (priority 2003, dated 2008)

Experiments:
luxCDABE gene fusions = settings: cited from earlier work
yhcP = experiment: DNA microarray gene expression profiling of pHBA-treated E. coli; type: cell-based; settings: 25 mM pHBA, 60 minutes
Description: (§1) The alterations in the E. coli gene expression profile upon exposure to pHBA were examined using DNA microarray technology. E. coli strain DE112 (Van Dyk et al. Appl. Environ. Microbiol. 60:1414-1420 (1994)) was grown in Vogel-Bonner minimal medium with glucose as a carbon source to an OD600 of 0.2. At this point the culture was split in two flasks and pHBA in the acid form was added to one flask from a stock solution in ethanol to achieve a final pHBA concentration of 25 mM. The pH of the medium in the flask with pHBA was lowered by an unmeasured amount. An equivalent volume of ethanol without pHBA was added to the other flask. Approximately 58% growth inhibition resulted from the pHBA treatment under these conditions. Cells were harvested from the control and treated flasks at 30 and 60 minutes after pHBA addition. RNA isolation, array hybridization, and data analysis were done as previously described (Wei et al, J. Bacteriol. 183:545-556 (2001), Smulski et al. J. Bacteriol. 183:3353-3364 (2001)). […] These three genes are predicted to be transcribed as an operon. The reproducible observed co-regulation in response to pHBA treatment is consistent with this prediction. Thus, these three genes will be referred to as the yhcRQP operon.

yhcQ = experiment: as above; type: cell-based; settings: 25 mM pHBA, 60 minutes
Description: as §1

yhcR = experiment: as above; type: cell-based; settings: 25 mM pHBA, 60 minutes
Description: as §1

E. coli strain DE112 = experiment: Growth inhibition by pHBA treatment; type: cell-based; settings: Escherichia coli, 25 mM pHBA (acid form), Vogel-Bonner minimal medium with glucose
Description: as §1

[1] = system: yhcRQP-luxCDABE gene fusion; experiment: Bioluminescence kinetics in yhcS+ strain DPD2413 (DH5alphaE host), FIG. 1; type: cell-based, E. coli; settings: 5 mM pHBA acid form, yhcS+ strain DPD2413, LB medium
Description: (§2) E. coli strain DPD2410 is the DH5αE derived strain containing the yhcS::TN<Kan> mutation. Strains DH5αE and DPD2410 were transformed with pDEW655 to generate E. coli strains DPD2413 and DPD2415, respectively. […] The plate was incubated for 90 minutes at 37° C.; then 50 μl of the cultures was added to 50 μl of LB medium or to 50 μl of LB medium containing pHBA in the acid form, which had been added from a stock solution in ethanol. The final concentration of pHBA was 5 mM and the final concentration of ethanol was 0.25%. The pH of the medium with pHBA was lowered by an unmeasured amount. The bioluminescence was quantitated with a Luminoskan Ascent microplate luminometer (Thermo Labsystems, Franklin, Mass.). The results of this study are presented in FIG. 1, which is a plot of the bioluminescence intensity in relative light units (RLU) versus time in minutes. In the Figure, addition of pHBA was made at time zero. Solid lines are the response in the yhcS^+ strain, DPD2413. Dotted lines are the response in the yhcS^− strain, DPD2415. Circles represent pHBA treated cultures and triangles represent untreated cultures.

[2] = system: yhcRQP-luxCDABE gene fusion; experiment: Bioluminescence kinetics in yhcS- strain DPD2415 (yhcS::TN<Kan>), FIG. 1; type: cell-based, E. coli; settings: 5 mM pHBA acid form, yhcS::TN<Kan> strain DPD2415, LB medium
Description: as §2

[3] = system: yhcRQP-luxCDABE gene fusion; experiment: Bioluminescence response in yhcS+ strain DPD2436 (MG1655 host); type: cell-based, E. coli; settings: thirty minutes, LB pH 7.0
Excerpt: A derivative of E. coli strain MG1655 (obtained from Prof. Douglas Berg, Washington University School of Medicine, St. Louis, […].) with the yhcS::TN<Kan> mutation was made by P1clr100Cm mediated transduction using phage grown on strain DPD2410 as a donor and selection for kanamycin resistance. […] Plasmid pDEW655 was moved to E. coli strains MG1655 and DPD2433 by transformation, selecting for Ampicillin resistance to generate strains DPD2436 and DPD2437, respectively. The bioluminescent response of these two strains to pHBA was tested. Aliquots (50 μl) of actively growing cultures at 37° C. in LB medium that had been previously diluted, and from overnight cultures in LB medium with 150 μg/ml Ampicillin were added to 50 μl of LB medium at pH 7.0 containing pHBA as the sodium salt form. Several concentrations of pHBA were tested.
Further characterization of the signals that trigger activation of YhcS, was done using the yhcRQP-luxCDABE gene fusion containing E. coli strains DPD2411 or DPD2436.

[4] = system: yhcRQP-luxCDABE gene fusion; experiment: Bioluminescence response in yhcS- strain DPD2437 (yhcS::TN<Kan>); type: cell-based, E. coli; settings: thirty minutes, LB pH 7.0
Excerpt: A derivative of E. coli strain MG1655 (obtained from Prof. Douglas Berg, Washington University School of Medicine, St. Louis, […].) with the yhcS::TN<Kan> mutation was made by P1clr100Cm mediated transduction using phage grown on strain DPD2410 as a donor and selection for kanamycin resistance. The presence of the yhcS::TN<Kan> mutation in one of the resultant transductants, named DPD2433, was confirmed by PCR amplification. Plasmid pDEW655 was moved to E. coli strains MG1655 and DPD2433 by transformation, selecting for Ampicillin resistance to generate strains DPD2436 and DPD2437, respectively. The bioluminescent response of these two strains to pHBA was tested. Aliquots (50 μl) of actively growing cultures at 37° C. in LB medium that had been previously diluted, and from overnight cultures in LB medium with 150 μg/ml Ampicillin were added to 50 μl of LB medium at pH 7.0 containing pHBA as the sodium salt form. Several concentrations of pHBA were tested.

In the case of `CCn1cc(C(=O)O)c(=O)c2ccc(C)nc21` [nalidixic acid], the “up-regulation of genes in luxCDABE gene fusion collection” value (luxCDABE gene fusions) is given as “selective up-regulation of ten genes”.

For `O=C(O)c1ccc(O)cc1` [pHBA, para-hydroxybenzoic acid], the “Ratio (treated/untreated)” value (yhcP; experiment 1) was 6.45, the “Signal in pHBA treated” value (yhcP; experiment 1) was 7.52 and the “Ratio (treated/untreated)” value (yhcP; experiment 2) was 12.1. The “Signal in pHBA treated” value (yhcP; experiment 2) was 12.0, the “Ratio (treated/untreated)” value (yhcQ; experiment 1) was 4.09 and the “Signal in pHBA treated” value (yhcQ; experiment 1) was 1.61. For the same compound, the “Ratio (treated/untreated)” value (yhcQ; experiment 2) was 22.3, the “Signal in pHBA treated” value (yhcQ; experiment 2) was 6.02 and the “Ratio (treated/untreated)” value (yhcR; experiment 1) was 72.3. For the same compound, the “Signal in pHBA treated” value (yhcR; experiment 1) was 1.37, the “Ratio (treated/untreated)” value (yhcR; experiment 2) was 10.5 and the “Signal in pHBA treated” value (yhcR; experiment 2) was 7.18. For the same compound, the inhibition at 25000 µM (E. coli strain DE112) was roughly 58%, the “upregulation of yhcRQP-luxCDABE expression (in words, FIG. 1)” value [1] was “rapid and dramatic upregulation” and the “upregulation of yhcRQP-luxCDABE expression (in words, FIG. 1)” value [2] was “essentially abolished”. The “RLU yhcS+” value ([3]; 1.6 mM pHBA sodium salt) was 6.72 RLU, the “Ratio treated/control yhcS+” value ([3]; 1.6 mM pHBA sodium salt) was 10.6 and the “RLU yhcS+” value ([3]; 3.1 mM pHBA sodium salt) was 10.2 RLU. The “Ratio treated/control yhcS+” value ([3]; 3.1 mM pHBA sodium salt) was 16.2, the “RLU yhcS+” value ([3]; 6.2 mM pHBA sodium salt) was 16.2 RLU and the “Ratio treated/control yhcS+” value ([3]; 6.2 mM pHBA sodium salt) was 25.7. For the same compound, the “RLU yhcS+” value ([3]; 12.5 mM pHBA sodium salt) was 30.8 RLU, the “Ratio treated/control yhcS+” value ([3]; 12.5 mM pHBA sodium salt) was 48.8 and the “RLU yhcS+” value ([3]; 25 mM pHBA sodium salt) was 66.6 RLU. For the same compound, the “Ratio treated/control yhcS+” value ([3]; 25 mM pHBA sodium salt) was 106, the “RLU yhcS+” value ([3]; 50 mM pHBA sodium salt) was 91.7 RLU and the “Ratio treated/control yhcS+” value ([3]; 50 mM pHBA sodium salt) was 145. The “RLU yhcS+” value ([3]; 100 mM pHBA sodium salt) was 0.437 RLU, the “Ratio treated/control yhcS+” value ([3]; 100 mM pHBA sodium salt) was 0.693 and the “RLU yhcS-” value ([4]; 1.6 mM pHBA sodium salt) was 1.02 RLU. For the same compound, the “Ratio treated/control yhcS-” value ([4]; 1.6 mM pHBA sodium salt) was 1.25, the “RLU yhcS-” value ([4]; 3.1 mM pHBA sodium salt) was 1.16 RLU and the “Ratio treated/control yhcS-” value ([4]; 3.1 mM pHBA sodium salt) was 1.42. For the same compound, the “RLU yhcS-” value ([4]; 6.2 mM pHBA sodium salt) was 1.42 RLU, the “Ratio treated/control yhcS-” value ([4]; 6.2 mM pHBA sodium salt) was 1.75 and the “RLU yhcS-” value ([4]; 12.5 mM pHBA sodium salt) was 1.82 RLU. The “Ratio treated/control yhcS-” value ([4]; 12.5 mM pHBA sodium salt) was 2.23, the “RLU yhcS-” value ([4]; 25 mM pHBA sodium salt) was 1.59 RLU and the “Ratio treated/control yhcS-” value ([4]; 25 mM pHBA sodium salt) was 1.95. The “RLU yhcS-” value ([4]; 50 mM pHBA sodium salt) was 0.614 RLU, the “Ratio treated/control yhcS-” value ([4]; 50 mM pHBA sodium salt) was 0.753 and the “RLU yhcS-” value ([4]; 100 mM pHBA sodium salt) was 0.045 RLU. For the same compound, the “Ratio treated/control yhcS-” value ([4]; 100 mM pHBA sodium salt) was 0.055.
